Test results reported in patent publication US20170258871A1, “COMBINED USE OF A TRKA INHIBITOR AND AN EPHA2 INHIBITOR FOR USING IN THE TREATMENT OF SOLID CANCERS, AND METHOD FOR THE PROGNOSIS OF SURVIVAL OF A PATIENT WHO HAS A SOLID CANCER” (UNIVERSITE DES SCIENCES ET TECHNOLOGIES DE LILLE, priority 2014, published 2017).

How the values were obtained:
[1] = test system: MDA-MB-231 HA-TrkA tumours; test: Xenograft of MDA-MB-231 HA-TrkA in SCID mice, survival (Experiment 2); type: in vivo; conditions: 5 injections (D14-D26), siRNA 7.5 microg/mouse close to the tumour; control 40 days; log-rank P=0.0022
Protocol: FIG. 9: A study of the inhibition of TrkA and EphA2 on tumour development in vivo. […] The experiments were stopped 31 days after the first injection of the treatment for ethical considerations after the death of the control mice. A) The tumour volumes were evaluated by measuring the length (;) and the width (w) and then calculating the volume using the formula π/6×l×W×(l+w)/2; the Mann and Whitney test was carried out between the control group and CEP-701 (a), between the control groups and siEphA2 (b), between the control groups and CEP-701+siEphA2 (c), and between the groups siEphA2 and CEP-701+siEphA2 (d)*, P<0.05; **, P<0.01; ns: not significant. B) Study of the inhibition of the expression of receptors by siRNA on the overall survival of SCID mice. The tumours were developed without any intervention for 14 days and were then subjected to 5 injections (D14, DI7, D20, D23, D26) of SiTrkA (7.5 microg/mouse), siEphA2 (7.5 microg/mouse), siTrkA (7.5 microg/mouse) and siEphA2 (7.5 microg/mouse). […] The tumour volumes were evaluated by measuring the length (l) and width (w) and then calculating the volume using the formula π/6×l×W×(l+w)/2. […] Significance was measured using the log-rank test (P=0.0022). […]
Experiment 2: The mice used were six-week old SCID females. […] The tumour volume was measured according to the following formula: π/6×length×width×(width+length)/2. […]

EphA2 = test: Western blot of EphA2 expression after siRNA; type: cell-based; conditions: MDA-MB-231 HA-TrkA transfected with siEphA2
Protocol: D. Cells MDA-MB-231 HA-TrkA were transfected with siEphA2 and then treated with proNGF N.C. (30 min). The recruitment of the sortilin and EphA2 was determined after anti-HA immunoprecipitation.
The sequences of siRNA used against EphA2 (siEphA2) at 100 pmol for each transfection, and against TrkA (pool of 3 siTrkA 1, 2 and 3) are given in table 1. The transfections of siRNA are produced by means of […]in™ according to the manufacturers instructions (POL409-10, Polyplus transfection, Ozyme, Saint Quentin en Yvelines, France).
After treatment, the cells were lysed (lysis buffer: 40 mM HEPES pH 7.5; 1 mM EDTA pH 8.0; 120 mM NaCl; 10 mM NaPPi; 50 mM NaF; 1.5 mM Na3VO4; 1% Triton X 100; 0.1% SDS; 1 mM PMSF; 10% glycerol and 1/100 th of protease inhibitor cocktail (Sigma) (20 min; 4° C.)). The lysates were recovered and clarified by centrifugation (12,000 g; 10 min; 4° C.). The supernatant was then stored at −80° C. until use. The protein extracts were diluted to 2 μg·μL−1 in a Laemmli 1× buffer (7 min; 100° C.) then deposited and separated on SDS-PAGE (concentration gel 3.6% acrylamide and separation gel 7.5% to 10% acrylamide (thickness 1 mm); 180 V; 10 min then 200 V constant; until output of the migration front). […] The membranes were placed in an image analyser (LAS 4000; Fuji) connected to a computer which allowed image generation (software Image Reader LAS 4000). […]

CAL27 cells = test: In vitro invasion test (Boyden chamber), CAL 27; type: cell-based; conditions: NGF 16 nM or proNGF N.C. 0.5 nM, untreated cells = 100%
Protocol: (0.5 nM) for a period of 20 hours. The untreated cells represent the control and determine a base invasion of 100%.
The Boyden Chambers (Transwell®; BD Biosciences; France) were recovered from a biological matrix (type 1 collagen from rats diluted to 400 μg·mL-1 in EMEM-0.1% FCS medium; Millipore). The cells were then seeded with 100,000 cells/well on PET membranes (polyethylene terephtalate; dia.: 10.5 mm; porosity: 8 μm) of Boyden Chambers and held in an EMEM-0.1% FCS medium. […] (0.5 nM) in the lower part. After 20 hours of culture, they were washed twice with PBS 1× and fixed (ice cold methanol; 15 min; −20° C.). The non-invasive cells (upper face of the Transwell®) were eliminated by scraping. The number of cells was estimated after staining with Hoechst 33 258 (1 mM; 30 min; 20° C.) by counting the nuclei thereof using fluorescence microscopy on a total of 5 five randomly chosen fields (lens 10×; λ-excitation: 345 nm; λ-emission: 478 nm; Eclipse Ti) using the ImageJ software. Each experiment was performed in triplicate. Statistical analysis of the results was performed by analysis of variance ANOVA (Bonferroni post-hoc test).

Substance	median survival [1] [days]	expression of EphA2 protein (EphA2)	cell invasion under growth factor (CAL27 cells)
siEphA2: siRNA against EphA2, GCAAGGAAGUGGUACUGCUGGACUU (SEQ ID NO: 1) (listed as RNA, chemistry not given here)	49	completely abolished the expression	
NGF: Nerve Growth Factor; recombinant human β NGF supplied by Scil Proteins			did not respond
